In ChEMBL document CHEMBL1201862, “PubChem BioAssay data set” (2004):
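96-well plates; 48 h exposure; 5 concentrations. Endpoints by linear interpolation between flanking doses. Not reached: highest tested concentration assigned. The concentration for 50% growth inhibition is given as GI50.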 Activity calls are given as the source filed them. Cut-off read from the data, not from the text of the source: active = GI50 up to about 1.1 µM and inactive = higher.

How the values were obtained:
Test in all cases: NCI tumour cell line growth inhibition, 48 h
[1] = system: Hs-578T
[2] = system: SF-268
[3] = system: A498
[4] = system: HCT-116
[5] = system: COLO 205
[6] = system: OVCAR-5
[7] = system: HCC 2998
[8] = system: HOP-62
[9] = system: U-251
[10] = system: OVCAR-3
[11] = system: CAKI-1
[12] = system: BT-549
[13] = system: NCI-H226
[14] = system: NCI-H522
[15] = system: HOP-92
[16] = system: SR
[17] = system: SF-539
[18] = system: NCI/ADR-RES
[19] = system: A549

Compound	GI50 [1]	GI50 [2]	GI50 [3]	GI50 [4]	GI50 [5]	GI50 [6]	GI50 [7]	GI50 [8]	GI50 [9]	GI50 [10]	GI50 [11]	GI50 [12]	GI50 [13]	GI50 [14]	GI50 [15]	GI50 [16]	GI50 [17]	GI50 [18]	GI50 [19]
N#Cc1ccc(Oc2nc3ccccc3nc2-c2ccccc2)cc1	> 100 µM (inactive)	> 100 µM (inactive)	> 100 µM (inactive)	> 100 µM (inactive)	> 100 µM (inactive)	> 100 µM (inactive)	> 100 µM (inactive)	> 100 µM (inactive)	> 100 µM (inactive)	> 100 µM (inactive)	> 100 µM (inactive)	> 100 µM (inactive)	> 100 µM (inactive)	> 100 µM (inactive)	> 100 µM (inactive)				
O=C1C2=Cc3ccccc3OC2(O)Oc2cc3ccccc3cc21 (centres undefined)		36.1 µM (inactive)	> 100 µM (inactive)	> 100 µM (inactive)	> 100 µM (inactive)	> 100 µM (inactive)	28.1 µM (inactive)	> 100 µM (inactive)	50.9 µM (inactive)	57.8 µM (inactive)	> 100 µM (inactive)	15.1 µM (inactive)	56.1 µM (inactive)		74.3 µM (inactive)	> 100 µM (inactive)	20 µM (inactive)	> 100 µM (inactive)	> 100 µM (inactive)
O=c1oc2ccccc2c(-c2ccc(O)cc2)c1Oc1ccccc1	7.5 µM (inactive)	8.57 µM (inactive)	7.71 µM (inactive)	20 µM (inactive)	29.4 µM (inactive)	18.8 µM (inactive)	7.21 µM (inactive)	24.1 µM (inactive)	8.51 µM (inactive)	17.5 µM (inactive)	24.5 µM (inactive)	3.33 µM (inactive)	> 47 µM (inactive)	3.47 µM (inactive)	10.2 µM (inactive)	41.8 µM (inactive)	20.7 µM (inactive)		22.1 µM (inactive)
O=c1c2ccccc2nc(-c2cccc(Cl)c2)n1NCC1(O)OCC(O)C(O)C1O (centres undefined)		> 100 µM (inactive)	> 100 µM (inactive)	> 100 µM (inactive)	> 100 µM (inactive)	> 100 µM (inactive)			> 100 µM (inactive)	> 100 µM (inactive)	> 100 µM (inactive)		> 100 µM (inactive)	37.8 µM (inactive)		43.9 µM (inactive)	> 100 µM (inactive)		> 100 µM (inactive)
O=C(NC(C(F)(F)F)(C(F)(F)F)P(=O)(c1ccccc1)c1ccccc1)C(C(F)(F)F)C(F)(F)F	54 µM (inactive)	28.9 µM (inactive)	> 100 µM (inactive)	18.5 µM (inactive)	20.2 µM (inactive)	34.2 µM (inactive)	> 100 µM (inactive)	> 100 µM (inactive)	36.6 µM (inactive)	25.8 µM (inactive)	0.0131 µM (active)		68.9 µM (inactive)	25.9 µM (inactive)			22.8 µM (inactive)	21.6 µM (inactive)	34.6 µM (inactive)
COC(=O)N1C[C@@]2(C=CC3(CC2)OCCO3)c2ccccc21			> 100 µM (inactive)	> 100 µM (inactive)	> 100 µM (inactive)	> 100 µM (inactive)	> 100 µM (inactive)	> 100 µM (inactive)	41.1 µM (inactive)	> 100 µM (inactive)	> 100 µM (inactive)				44.1 µM (inactive)	49.7 µM (inactive)		28.6 µM (inactive)	> 100 µM (inactive)
CCOC(=O)C(=O)N/N=C1\C(=O)Nc2ccccc21		> 100 µM (inactive)	> 100 µM (inactive)	> 100 µM (inactive)	> 100 µM (inactive)	> 100 µM (inactive)	> 100 µM (inactive)	> 100 µM (inactive)	> 100 µM (inactive)		> 100 µM (inactive)	> 100 µM (inactive)	> 100 µM (inactive)	> 100 µM (inactive)		> 100 µM (inactive)		> 100 µM (inactive)	> 100 µM (inactive)
C[C@]12CCC(N3CCCC3)CC1=CC[C@@H]1[C@@H]2CC[C@]2(C)C(O)[C@H](n3ccnc3)C[C@@H]12 (some centres undefined)	> 10 µM (inactive)	> 10 µM (inactive)	> 100 µM (inactive)	38.1 µM (inactive)	30.3 µM (inactive)	53.8 µM (inactive)			75.9 µM (inactive)	32.3 µM (inactive)	> 100 µM (inactive)		> 100 µM (inactive)	49.9 µM (inactive)	> 100 µM (inactive)	15.3 µM (inactive)	19 µM (inactive)	> 100 µM (inactive)	66.5 µM (inactive)
C=C1C(=O)O[C@H]2C/C(C)=C/CC[C@]3(C)CCC[C@](C)(CC[C@@H]12)O3	8.69 µM (inactive)	7.8 µM (inactive)		8.69 µM (inactive)	6.4 µM (inactive)	13.7 µM (inactive)	7.24 µM (inactive)	20.5 µM (inactive)	8.97 µM (inactive)	9.53 µM (inactive)	12 µM (inactive)		11.9 µM (inactive)	6.35 µM (inactive)	6.46 µM (inactive)	4.61 µM (inactive)	9.48 µM (inactive)	7.91 µM (inactive)	16.6 µM (inactive)
CCOP(=O)(OCC)[C@H](O)c1ccsc1		> 100 µM (inactive)	> 100 µM (inactive)	> 100 µM (inactive)	> 100 µM (inactive)	> 100 µM (inactive)	> 100 µM (inactive)	> 100 µM (inactive)	> 100 µM (inactive)		> 100 µM (inactive)	> 100 µM (inactive)	> 100 µM (inactive)	> 100 µM (inactive)		> 100 µM (inactive)	> 100 µM (inactive)	> 100 µM (inactive)	> 100 µM (inactive)
O=C1OC(OC/C(Br)=C(/Br)COC2OC(=O)C(Cl)=C2Cl)C(Cl)=C1Cl (centres undefined)	13 µM (inactive)	9.82 µM (inactive)	21.9 µM (inactive)	3.13 µM (inactive)	4.29 µM (inactive)	14.1 µM (inactive)	16.7 µM (inactive)	11.7 µM (inactive)	7.6 µM (inactive)	4.88 µM (inactive)	3.15 µM (inactive)		26.2 µM (inactive)	2.14 µM (inactive)	9.4 µM (inactive)	0.724 µM (active)	21.8 µM (inactive)	6.7 µM (inactive)	22.1 µM (inactive)
Cc1cc2c(cc1C)[n+]([O-])c(C(=O)C/C(=N/NC(=S)NN)C(=O)Nc1cccc(C(F)(F)F)c1)c[n+]2[O-]		> 100 µM (inactive)	> 100 µM (inactive)	> 100 µM (inactive)	> 100 µM (inactive)	> 100 µM (inactive)	> 100 µM (inactive)	> 100 µM (inactive)	> 100 µM (inactive)	> 100 µM (inactive)	> 100 µM (inactive)		> 100 µM (inactive)	> 100 µM (inactive)	> 100 µM (inactive)	65.6 µM (inactive)	> 100 µM (inactive)		> 100 µM (inactive)
O=C1OC(c2ccccc2)=N/C1=C/NC(Cc1ccccc1)C(=O)O (centres undefined)		> 100 µM (inactive)	> 100 µM (inactive)	> 100 µM (inactive)	> 100 µM (inactive)	> 100 µM (inactive)	> 100 µM (inactive)	> 100 µM (inactive)	> 100 µM (inactive)	> 100 µM (inactive)	> 100 µM (inactive)		> 100 µM (inactive)	> 100 µM (inactive)		> 100 µM (inactive)	> 100 µM (inactive)		> 100 µM (inactive)
Cc1nc2cc3ccccc3cc2[nH]c1=O		39.3 µM (inactive)	19.8 µM (inactive)	> 100 µM (inactive)	> 100 µM (inactive)	> 100 µM (inactive)	> 100 µM (inactive)	71.6 µM (inactive)	55.1 µM (inactive)	68.1 µM (inactive)	38.1 µM (inactive)	> 100 µM (inactive)	53.2 µM (inactive)	59.4 µM (inactive)	26.1 µM (inactive)	78.3 µM (inactive)	53.2 µM (inactive)	77.3 µM (inactive)	> 100 µM (inactive)
COc1cc(S(=O)(=O)Nc2nc(-c3ccc(N4C(=O)/C(=C/c5ccccc5[N+](=O)[O-])N=C4c4ccccc4)cc3)cs2)ccc1Cl		22.6 µM (inactive)	> 100 µM (inactive)	74 µM (inactive)	> 100 µM (inactive)	> 100 µM (inactive)		87.1 µM (inactive)	46.6 µM (inactive)	29.5 µM (inactive)	> 100 µM (inactive)	20 µM (inactive)	> 100 µM (inactive)	48.3 µM (inactive)	88.3 µM (inactive)	34.3 µM (inactive)	> 100 µM (inactive)	> 100 µM (inactive)	> 100 µM (inactive)
Cc1n[nH]c(=O)n1/N=C/c1ccncc1	> 100 µM (inactive)	> 100 µM (inactive)	> 100 µM (inactive)	> 100 µM (inactive)	> 100 µM (inactive)	> 100 µM (inactive)	> 100 µM (inactive)	> 100 µM (inactive)	> 100 µM (inactive)	> 100 µM (inactive)	> 100 µM (inactive)		> 100 µM (inactive)	> 100 µM (inactive)	> 100 µM (inactive)		> 100 µM (inactive)	> 100 µM (inactive)	> 100 µM (inactive)
C=C[C@]1(O)CCC[C@]2(C)C(=O)CCC12C (some centres undefined)	> 100 µM (inactive)	> 100 µM (inactive)	> 100 µM (inactive)	> 100 µM (inactive)	> 100 µM (inactive)	> 100 µM (inactive)	> 100 µM (inactive)	> 100 µM (inactive)	> 100 µM (inactive)	> 100 µM (inactive)			> 100 µM (inactive)	> 100 µM (inactive)	> 100 µM (inactive)	> 100 µM (inactive)	> 100 µM (inactive)	> 100 µM (inactive)	> 100 µM (inactive)
